Source: patent US11206830B2, “Herbicidal composition comprising glufosinate or a salt thereof and pyroxasulfone” (BASF SE, priority 2008, dated 2021)
Where “and” joins values, the source holds several entries; their conditions need not be identical. Equal entries are not always repeated.

Tests used:
Assay type in all cases: in vivo
[1] = tested on: Digitaria sanguinalis (DIGSA); test: greenhouse post-emergence herbicidal activity on DIGSA; settings: for % activity 20 DAT: solo application
Excerpt: (§1) For the post-emergence treatment, the test plants were first grown to a height of 3 to 20 cm, depending on the plant habit, and only then treated. Here, the herbicidal compositions were suspended or emulsified in water as distribution medium and sprayed using finely distributing nozzles.
(§2) The respective herbicides B and/or safener were formulated as 10% by weight strength suspension concentrate and introduced to the spray liquor with the amount of solvent system used for applying the active compound. Herbicides A, C and/or safener were used as commercially available formulations and introduced to the spray liquor with the amount of solvent system used for applying the active compound. In the examples, the solvent used was water.
(§3) The test period extended over 21 days. During this time, the plants were tended, and their response to the treatments with active compound was evaluated.
(§4) The evaluation for the damage caused by the chemical compositions was carried out using a scale from 0 to 100%, compared to the untreated control plants. Here, 0 means no damage and 100 means complete destruction of the plants.
(§5) The value E, which is to be expected if the activity of the individual compounds is just additive, was calculated using the method of S. R. Colby (1967) “Calculating synergistic and antagonistic responses of herbicide combinations”, Weeds 15, p. 22 ff. For two component mixtures the value E was calculated by the following formula E=X+Y−(X·Y/100)
(§6) For three component mixtures the value E was calculated by the following formula E=X+Y+Z−(XY+XZ+YZ)/100+(X·YZ/10000) where X=effect in percent using herbicide A at an application rate a; • Y=effect in percent using herbicide B at an application rate b; • Z=effect in percent using herbicide C at an application rate c; • E=expected effect (in %) of A+B at application rates a+b. or • E=expected effect (in %) of A+B+C at application rates a+b+c.
(§7) If the value observed in this manner is higher than the value E calculated according to Colby, a synergistic effect is present.
(§8) Tables 1 to 12 relate to the herbicidal activity of the individual actives and of their combinations in post-emergence application assessed 20 DAT.

[2] = tested on: Chenopodium album (CHEAL); test: greenhouse post-emergence herbicidal activity on CHEAL; settings: for % activity 20 DAT: solo application
Excerpt: as §1, §2, §3, §4, §5, §6, §7, §8

[3] = tested on: Matricaria inermis (MATIN); test: greenhouse post-emergence herbicidal activity on MATIN; settings: for % activity 20 DAT: solo application
Excerpt: as §1, §2, §3, §4, §5, §6, §7, §8

[4] = tested on: Alopecurus myosuroides (ALOMY); test: greenhouse post-emergence herbicidal activity on ALOMY; settings: for % activity 20 DAT: solo application
Excerpt: as §1, §2, §3, §4, §5, §6, §7, §8

[5] = tested on: Lolium multiflorum (LOLMU); test: greenhouse post-emergence herbicidal activity on LOLMU; settings: for % activity 20 DAT: solo application
Excerpt: as §1, §2, §3, §4, §5, §6, §7, §8

Sinapis arvensis (SINAR) = test: greenhouse post-emergence herbicidal activity on SINAR
Excerpt: as §1, §2, §3
(§9) The evaluation for the damage caused by the chemical compositions was carried out using a scale from 0 to 100%, compared to the untreated control plants. […]
(§10) The value E, which is to be expected if the activity of the individual compounds is just additive, was calculated using the method of S. R. Colby (1967) “Calculating synergistic and antagonistic responses of herbicide combinations”, Weeds 15, p. […] For two component mixtures the value E was calculated by the following formula E=X+Y−(X·Y/100)
as §6, §7, §8

[6] = tested on: Abutilon theophrasti (ABUTH); test: greenhouse post-emergence herbicidal activity on ABUTH; settings: for % activity 20 DAT: solo application
Excerpt: as §1, §2, §3, §4, §5, §6, §7, §8

Setaria viridis (SETVI) = test: greenhouse post-emergence herbicidal activity on SETVI; settings: 480 h, read-out: % activity 20 DAT
Excerpt: as §1, §2, §3, §9, §10, §6, §7, §8

[7] = tested on: Echinochloa crus-galli (ECHCG); test: greenhouse post-emergence herbicidal activity on ECHCG
Excerpt: as §1, §2, §3, §9, §10, §6, §7, §8

[8] = tested on: Polygonum convolvulus (POLCO); test: greenhouse post-emergence herbicidal activity on POLCO; settings: for % activity 20 DAT: solo application
Excerpt: as §1, §2, §3, §4, §5, §6, §7, §8

[9] = tested on: Amaranthus retroflexus (AMARE); test: greenhouse post-emergence herbicidal activity on AMARE; settings: 480 h, read-out: % activity 20 DAT
Excerpt: as §1, §2, §3, §9, §10, §6, §7, §8

Avena fatua (AVEFA) = test: greenhouse post-emergence herbicidal activity on AVEFA; settings: 480 h, read-out: % activity 20 DAT
Excerpt: as §1, §2, §3, §4, §5, §6, §7, §8

Galium aparine (GALAP) = test: greenhouse post-emergence herbicidal activity on GALAP; settings: solo application
Excerpt: as §1, §2, §3, §4, §5, §6, §7, §8

[10] = Digitaria sanguinalis, 480 h, read-out: % activity 20 DAT
[11] = Fallopia convolvulus, 480 h, read-out: % activity 20 DAT

COC[C@H](C)N(C(=O)CCl)c1c(C)csc1C [dimethenamid-P]
% activity 20 DAT ([1]; 135 g ai/ha): 50% | % activity 20 DAT ([1]; 270 g ai/ha): 50% | % activity 20 DAT ([2]; 270 g ai/ha): 20% | % activity 20 DAT ([3]; 135 g ai/ha): 0% | % activity 20 DAT ([3]; 270 g ai/ha): 0% | % activity 20 DAT ([4]; 270 g ai/ha): 20% | % activity 20 DAT ([4]; 540 g ai/ha): 30% | % activity 20 DAT ([5]; 135 g ai/ha): 60% | % activity 20 DAT (Sinapis arvensis (SINAR); solo application, 135 g ai/ha): 45% | % activity 20 DAT ([6]; 135 g ai/ha): 15% | % activity 20 DAT ([6]; 540 g ai/ha): 15%

O=C(O)CNCP(=O)(O)O [glyphosate, N-(phosphonomethyl)glycine]
inhibition at 50 g/ha [1, 10]: 70% | inhibition at 100 g/ha [1, 10]: 85% | inhibition at 50 g/ha (Setaria viridis (SETVI)): 70% | inhibition at 50 g/ha ([2]; Chenopodium album, 480 h, read-out: % activity 20 DAT, post-emergence, solo application, 50 g ai/ha): 40% | inhibition at 200 g/ha ([2]; Chenopodium album, 480 h, read-out: % activity 20 DAT, post-emergence, solo application, 200 g ai/ha): 80% | % activity 20 DAT ([2]; 50 g ai/ha): 30% | % activity 20 DAT ([2]; 100 g ai/ha): 50% and 85% | inhibition at 50 g/ha ([7]; Echinochloa crus-galli, 480 h, read-out: % activity 20 DAT): 30% | inhibition at 100 g/ha ([3]; Matricaria, 480 h, read-out: % activity 20 DAT, post-emergence, solo application, 100 g ai/ha): 90% | inhibition at 400 g/ha ([3]; Matricaria, 480 h, read-out: % activity 20 DAT, post-emergence, solo application, 400 g ai/ha): 95% | % activity 20 DAT ([3]; 50 g ai/ha): 65% | inhibition at 50 g/ha [8, 11]: 30% | inhibition at 100 g/ha [8, 11]: 50% | inhibition at 200 g/ha [8, 11]: 50% | inhibition at 400 g/ha [8, 11]: 90% | inhibition at 50 g/ha [9]: 90% | inhibition at 50 g/ha ([4]; Alopecurus myosuroides, 480 h, read-out: % activity 20 DAT, post-emergence, solo application, 50 g ai/ha): 20% | inhibition at 100 g/ha ([4]; Alopecurus myosuroides, 480 h, read-out: % activity 20 DAT, post-emergence, solo application, 100 g ai/ha): 40% | inhibition at 200 g/ha ([4]; Alopecurus myosuroides, 480 h, read-out: % activity 20 DAT, post-emergence, solo application, 200 g ai/ha): 85% | % activity 20 DAT ([4]; 50 g ai/ha): 15% | % activity 20 DAT ([4]; 100 g ai/ha): 30% | inhibition at 100 g/ha (Avena fatua (AVEFA)): 45% | inhibition at 50 g/ha ([5]; Lolium multiflorum, 480 h, read-out: % activity 20 DAT, post-emergence, solo application, 50 g ai/ha): 40% | inhibition at 100 g/ha ([5]; Lolium multiflorum, 480 h, read-out: % activity 20 DAT, post-emergence, solo application, 100 g ai/ha): 75% | % activity 20 DAT ([5]; 50 g ai/ha): 45% | % activity 20 DAT (Galium aparine (GALAP); 50 g ai/ha): 10% | inhibition at 50 g/ha (Sinapis arvensis (SINAR); Mutarda arvensis, 480 h, read-out: % activity 20 DAT): 80% | inhibition at 50 g/ha ([6]; Abutilon theophrasti, 480 h, read-out: % activity 20 DAT, post-emergence, solo application, 50 g ai/ha): 0% | inhibition at 200 g/ha ([6]; Abutilon theophrasti, 480 h, read-out: % activity 20 DAT, post-emergence, solo application, 200 g ai/ha): 70%

CC(C)N(C)S(=O)(=O)NC(=O)c1cc(-n2c(=O)cc(C(F)(F)F)n(C)c2=O)c(F)cc1Cl [saflufenacil]
% activity 20 DAT ([1]; 1.56 g ai/ha): 0% | % activity 20 DAT ([2]; 1.56 g ai/ha): 40% | % activity 20 DAT ([7]; solo application, 1.56 g ai/ha): 0% | % activity 20 DAT ([3]; 1.56 g ai/ha): 20% | % activity 20 DAT ([3]; 3.13 g ai/ha): 55% | % activity 20 DAT ([8]; 1.56 g ai/ha): 45% | % activity 20 DAT ([8]; 3.13 g ai/ha): 55% | % activity 20 DAT ([4]; 1.56 g ai/ha): 0% | % activity 20 DAT ([4]; 3.13 g ai/ha): 0% | % activity 20 DAT (Galium aparine (GALAP); 3.13 g ai/ha): 30% | % activity 20 DAT ([6]; 1.56 g ai/ha): 45%
